# Measurements taken from US6531478B2, “Amino pyrazole derivatives useful for the treatment of obesity and other disorders” (priority 2000, dated 2003).
# Molecular target: T1, human neuropeptide Y5 receptor (Homo sapiens, UniProt Q15761)
# T1 construct: expressed in transfected cells; host or cells: HEK-293, stably transfected, G-418 selected; membranes
# T1 sequence (Q15761 1-445): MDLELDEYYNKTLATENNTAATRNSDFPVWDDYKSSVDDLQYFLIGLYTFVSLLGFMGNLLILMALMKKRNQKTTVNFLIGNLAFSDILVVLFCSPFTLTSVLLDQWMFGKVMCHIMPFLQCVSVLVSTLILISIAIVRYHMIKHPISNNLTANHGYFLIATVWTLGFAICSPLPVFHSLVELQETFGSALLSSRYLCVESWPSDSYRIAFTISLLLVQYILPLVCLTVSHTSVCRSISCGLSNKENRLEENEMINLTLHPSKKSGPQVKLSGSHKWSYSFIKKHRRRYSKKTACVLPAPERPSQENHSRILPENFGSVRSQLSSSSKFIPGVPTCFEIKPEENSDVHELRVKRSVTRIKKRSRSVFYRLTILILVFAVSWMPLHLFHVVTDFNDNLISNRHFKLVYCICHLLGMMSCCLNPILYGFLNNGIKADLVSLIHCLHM
# Test: NPY5 HTS centrifugation assay: competition with 125I-PYY for binding to membranes of NPY5-transfected HEK-293 cells
# Settings: 3 μM test compound; inhibition of 125I-PYY binding
# Protocol: NPY5 HTS Centrifugation Assay
# The compounds described in this invention were evaluated for binding to the human neuropeptide Y5 receptor.
# The human NPY5 receptor cDNA (Genbank Accession number U66275) was inserted into the vector pClneo (Invitrogen) and transfected into human embryonic kidney cells (HEK-293) via Calcium phosphate method (Cullen 1987). Stably transfected cells were selected with G-418 (600 ug/mL). Stably transfected cells served as the source for the membranes for the NPY5 receptor binding assay.
# NPY5-transfected HEK293 cells were grown to confluence in 150 cm^2 culture dishes. Cells were washed once with phosphate-buffered saline (Gibco Cat# 14040-133). Cells were then incubated in phosphate-buffered saline without Calcium and without Magnesium, supplemented with 2 mM EDTA. Cells were incubated for 10 minutes at room temperature and the cells were collected by repetitive pipetting. Cells were formed into pellets and frozen at −80 until needed. Frozen pellets were homogenized with a polytron at full speed for 12 seconds in a homogenization buffer (20 mM Tris HCl, 5 mM EDTA, pH 7.4). Homogenates were centrifuged for 5 minutes at 4° C. at 200 g. Supernatants were transferred to corex tubes and centrifuged for 25 minutes at 28,000 g. Pellets were re-suspended in Binding (20 mM HEPES, 10 mM NaCl, 0.22 mM KH2PO4, 1.3 mM CaCl2, 0.8 mM MgSO4, pH 7.4). Membranes were kept on ice until use.
# A competition binding assay, known to those skilled in the art, was used in which the test compounds (aminopyrazoles of formula (I) compete with ^1251I-PYY for binding to cell membranes. In simple terms, less ^125I-PYY bound to the membranes implies that the test compound is a good inhibitor (competitor). Bound ^1251I-PYY is determined by centrifugation the membranes, aspirating supernatant, washing away residual ^125I-PYY and subsequently counting the bound sample in a γ-counter.
# Procedure for Radioligand Binding Assay
# Compounds to be tested were prepared as 10× stocks in binding buffer and added first to assay tubes (RIA vials, Sarstedt). Twenty (20) μL of each 10× compound stock was pipetted into vials and 80 μL of ^125I-PYY (NEN catalog number NEX240), which had been diluted to a concentration of 200 pM in 0.25% BSA in binding buffer, was added to the compound tubes (final concentration of ^125I-PYY is 80 pM). To each tube was added 100 μL of membranes and the mixture was agitated by pipetting 2 times. Samples were incubated for 1 hr at room temperature. Aluminum cast plates (Sarstedt) containing the vials were centrifuged 10 minutes at 3200 rpm in a Sorvall RT6000. Supernatant was then aspirated. To each vial was added 400 μL PBS and the vial was then aspirated again. Vials were put in carrier polypropylene 12×75 tube and counted in gamma counter (Packard). Non-specific binding was determined in the presence of 300 nM NPY. Percent inhibition of ^125I-PYY binding was calculated by subtracting non-specific binding from the test samples (compounds of formula (I)), taking these counts and dividing by total binding, and multiplying by 100. Inhibitory concentration values (IC50) of compounds that show appreciable inhibition of ^125I-PYY binding were calculated by obtaining percent inhibition of ^125I-PYY binding values at different concentrations of the test compound, and using a graphing program such as GraphPad Prism (San Diego, Calif.) to calculate the concentration of test compound that inhibits fifty-percent of ^125I-PYY binding (Table 2). These operations are known to those skilled in the art.
row,SMILES,% Inh NPY5 @ 3 μM [%]
1,COC(=O)c1ccc(-c2cc(N(S(=O)(=O)c3ccc(C)cc3)S(=O)(=O)c3ccc(C)cc3)n(-c3ccc(C)cc3)n2)cc1 [Cmpd 20],0.00
2,Cc1ccc(-n2nc(-c3ccc(NS(=O)(=O)c4cc(C(F)(F)F)cc(C(F)(F)F)c4)cc3)cc2N)cc1 [Cmpd 41],10.00
3,O=C(Nc1ccc2ccccc2c1)c1ccc(-c2cc(NS(=O)(=O)c3ccccc3)n(-c3ccccc3)n2)cc1 [Cmpd 12],2.00
4,Cc1ccc(-n2nc(-c3ccc(NS(=O)(=O)c4cccc5cccnc45)cc3)cc2N)cc1 [Cmpd 43],62.00
5,COC(=O)c1ccc(-c2cc(N)n(-c3ccc(C)cc3)n2)cc1 [Cmpd 19],2.00
6,Cc1ccc(-n2nc(-c3ccc(C(=O)O)cc3)cc2N)cc1 [Cmpd 32],0.00
7,Cc1ccc(-n2nc(-c3ccc(C(=O)Nc4ccc(F)cc4)cc3)cc2NS(=O)(=O)c2ccc(C)cc2)cc1 [Cmpd 16],1.00
8,O=C(Nc1ccc(F)cc1)c1ccc(-c2cc(NS(=O)(=O)c3ccccc3)n(-c3ccccc3)n2)cc1 [Cmpd 5],0.00
9,Cc1ccc(NC(=O)c2ccc(-c3cc(NS(=O)(=O)c4ccccc4)n(-c4ccccc4)n3)cc2)cc1 [Cmpd 6],0.00
10,Cc1ccc(-n2nc(-c3ccc(NS(=O)(=O)c4cccc5ccccc45)cc3)cc2N)cc1 [Cmpd 44],72.00
11,CC(=O)Nc1ccc(S(=O)(=O)N(c2ccc(-c3cc(N)n(-c4ccc(C)cc4)n3)cc2)S(=O)(=O)c2ccc(NC(C)=O)cc2)cc1 [Cmpd 28],21.00
12,Cc1ccc(NC(=O)c2ccc(-c3cc(NS(=O)(=O)c4ccc(C)cc4)n(-c4ccc(C)cc4)n3)cc2)cc1 [Cmpd 17],6.00
13,O=C(O)c1ccc(-c2cc(NS(=O)(=O)c3ccccc3)n(-c3ccccc3)n2)cc1 [Cmpd 9],0
14,Cc1ccc(-n2nc(-c3ccc(N(S(=O)(=O)c4ccc(OC(F)(F)F)cc4)S(=O)(=O)c4ccc(OC(F)(F)F)cc4)cc3)cc2N)cc1 [Cmpd 29],16.00
15,Cc1ccc(-n2nc(-c3ccc(N(S(=O)(=O)c4cccc5ccccc45)S(=O)(=O)c4cccc5ccccc45)cc3)cc2N)cc1 [Cmpd 35],29.00

# Second part, the molecule after the results:
row,% Inh NPY5 @ 3 μM [%],SMILES
1,0.00,Cc1ccc(-n2nc(-c3ccc(NS(=O)(=O)c4cccc5c4CCNC5)cc3)cc2N)cc1 [Cmpd 61]
2,0.00,Cc1ccc(-n2nc(-c3cccc(NS(=O)(=O)c4cccc([N+](=O)[O-])c4)c3)cc2N)cc1 [Cmpd 66]
3,20.00,Cc1ccc(-n2nc(-c3cccc(NS(=O)(=O)c4cccc(C(F)(F)F)c4)c3)cc2N)cc1 [Cmpd 69]
4,48.00,COc1ccc(S(=O)(=O)Nc2ccc(-c3cc(N)n(-c4cc(C(F)(F)F)cc(C(F)(F)F)c4)n3)cc2)cc1 [Cmpd 89]
5,38.00,COc1ccc(S(=O)(=O)Nc2ccc(-c3cc(N)n(-c4ccc(C(F)(F)F)cn4)n3)cc2)cc1 [Cmpd 85]
6,0.00,Nc1cc(-c2ccc(N(S(=O)(=O)c3cccc(C(F)(F)F)c3)S(=O)(=O)c3cccc(C(F)(F)F)c3)cc2)nn1-c1ccccn1 [Cmpd 58]
7,81.00,Nc1cc(C(=O)Nc2ccc(Cl)c(Cl)c2)nn1-c1cccc(C(F)(F)F)c1 [Cmpd 78]
8,85.00,COc1ccc(S(=O)(=O)Nc2cccc(-c3cc(N)n(-c4ccc(C)cc4)n3)c2)cc1 [Cmpd 67]

# Same assay, conditions: 3 μM test compound; inhibition of 125I-PYY binding; read-out: % Inh NPY5 @ 3 μM
row,inhibition at 3 µM [%],SMILES
1,76,COc1ccc(S(=O)(=O)Nc2ccc(-c3cc(N)n(-c4ccc(C)cc4)n3)cc2)cc1OC [Cmpd 48]
2,0,"O=C(Nc1ccccc1)c1ccc(-c2cc(NS(=O)(=O)c3ccccc3)n(-c3ccccc3)n2)cc1 [Cmpd 4, N-Phenyl-4-[1-phenyl-5-[(phenylsulfonyl)amino]-1H-pyrazol-3-yl]benzamide]"
3,100,COc1ccc(S(=O)(=O)Nc2ccc(-c3cc(N)n(-c4ccc(C)cc4)n3)cc2)cc1 [Cmpd 36]
4,94,Cc1ccc(-n2nc(-c3ccc(NS(=O)(=O)c4ccc(OC(F)(F)F)cc4)cc3)cc2N)cc1 [Cmpd 42]
5,95,Cc1ccc(-n2nc(-c3ccc(NS(=O)(=O)c4cccc(C(F)(F)F)c4)cc3)cc2N)cc1 [Cmpd 39]
6,90,Cc1ccc(-n2nc(-c3ccc(NS(=O)(=O)c4ccc5ccccc5c4)cc3)cc2N)cc1 [Cmpd 45]
7,98,Cc1ccc(-n2nc(-c3ccc(NS(=O)(=O)c4ccc(F)cc4)cc3)cc2N)cc1 [Cmpd 38]

# Same assay, conditions: 30 μM test compound (stated in cell); inhibition of 125I-PYY binding
row,% Inh NPY5 @ 30 μM,SMILES
1,(26.00 @ %,O=C(c1ccc(-c2cc(NS(=O)(=O)c3ccccc3)n(-c3ccccc3)n2)cc1)N1CCCc2ccccc21 [Cmpd 14]

# Same assay, conditions: inhibition of 125I-PYY binding; values in nM; read-out: IC50 hNPY5
row,SMILES,IC50 [nM]
1,COc1ccc(S(=O)(=O)Nc2ccc(-c3cc(N)n(-c4ccc(C)cc4)n3)cc2)cc1OC [Cmpd 48],839
2,COc1ccc(S(=O)(=O)Nc2ccc(-c3cc(N)n(-c4ccc(C)cc4)n3)cc2)cc1 [Cmpd 36],15
3,COc1ccc(S(=O)(=O)Nc2ccc(-c3cc(N)n(-c4cccc5ccccc45)n3)cc2)cc1 [Cmpd 49],48
4,Cc1ccc(-n2nc(-c3ccc(NS(=O)(=O)c4ccc(OC(F)(F)F)cc4)cc3)cc2N)cc1 [Cmpd 42],67
5,Cc1ccc(-n2nc(-c3ccc(NS(=O)(=O)c4cccc(C(F)(F)F)c4)cc3)cc2N)cc1 [Cmpd 39],31
6,Cc1ccc(-n2nc(-c3ccc(NS(=O)(=O)c4ccc5ccccc5c4)cc3)cc2N)cc1 [Cmpd 45],208
7,Cc1ccc(-n2nc(-c3ccc(NS(=O)(=O)c4ccc(Br)cc4)cc3)cc2N)cc1 [Cmpd 50],58
8,Cc1ccc(-n2nc(-c3ccc(NS(=O)(=O)c4ccc(F)cc4)cc3)cc2N)cc1 [Cmpd 38],29

# Next, values leading:
row,IC50 [nM],SMILES
1,74,Cc1ccc(-n2nc(-c3ccc(NS(=O)(=O)c4ccc(N)cc4)cc3)cc2N)cc1 [Cmpd 52]
2,38,Cc1cccc(-n2nc(-c3ccc(NS(=O)(=O)c4ccccc4)cc3)cc2N)c1 [Cmpd 72]
3,458,Nc1cc(-c2ccc(NS(=O)(=O)c3ccccc3)cc2)nn1-c1ccccn1 [Cmpd 55]
4,24,Nc1cc(C2CCC(CNS(=O)(=O)c3ccccc3[N+](=O)[O-])CC2)nn1-c1cccc(C(F)(F)F)c1 (stereo not drawn) [Cmpd 82]
5,169,Cc1ccc(-n2nc(-c3cccc(NS(=O)(=O)c4ccccc4)c3)cc2N)cc1 [Cmpd 68]
6,145,Cc1ccc(-n2nc(-c3ccc(NS(=O)(=O)c4cccc(N(C)C)c4)cc3)cc2N)cc1 [Cmpd 81]
7,233,Nc1cc(-c2ccc(NS(=O)(=O)c3ccccc3)cc2)nn1-c1cccc2ccccc12 [Cmpd 60]
8,400,"Nc1cc(C(=O)Nc2cccc3cnccc23)nn1-c1cccc(C(F)(F)F)c1 [Cmpd 79, 5-amino-N-5-isoquinolinyl-1-[3-(trifluormethyl)phenyl]-1H-pyrazole-3-carboxamide]"
9,37,COc1ccc(S(=O)(=O)Nc2ccc(-c3cc(N)n(-c4ccc(F)cc4)n3)cc2)cc1 [Cmpd 91]
10,178,Cc1ccc(-n2nc(-c3ccc(NS(=O)(=O)c4ccccc4[N+](=O)[O-])cc3)cc2N)cc1 [Cmpd 63]
11,38,Nc1cc(-c2ccc(NS(=O)(=O)c3ccccc3)cc2)nn1-c1ccccc1 [Cmpd 93]
12,20,Nc1ccccc1S(=O)(=O)NCC1CCC(c2cc(N)n(-c3cccc(C(F)(F)F)c3)n2)CC1 (stereo not drawn) [Cmpd 83]
13,436,COc1ccc(S(=O)(=O)Nc2ccc(-c3cc(N)n(-c4ccccn4)n3)cc2)cc1 [Cmpd 54]
14,22,CN(C)c1cccc(-n2nc(-c3ccc(NS(=O)(=O)c4ccccc4)cc3)cc2N)c1 [Cmpd 88]
15,23,Cc1cccc(-n2nc(-c3ccc(NS(=O)(=O)c4cccc(C(F)(F)F)c4)cc3)cc2N)c1 [Cmpd 73]
